Test results: US9012651B2, “TRPV3 modulators” (AbbVie Inc., priority 2011, dated 2015)

Biological target: human TRPV3 receptors (Homo sapiens (Human), UniProt Q8NET8)
Assay: Calcium flux assay (FLIPR TETRA), inhibition of the 2-APB response
Type: cell-based
Settings: recombinant HEK293 cells stably expressing TRPV3, Calcium-4 dye, 2-APB at its EC80
Procedure: (i) In Vitro Methods-Calcium Flux Assays:
Experiments were conducted using the FLIPR^TETRA®. On the day prior to the experiment, recombinant HEK293 cells that stably express human and mouse TRPV3 were removed from tissue culture flasks and plated in growth medium at 20,000 cells/well into black-walled clear-bottom 384-well Biocoat™ poly-D-lysine assay plates (BD Biosciences, Bedford, Mass.) using a Multidrop® dispenser (ThermoScientific, Waltham, Mass.). […] Cells were incubated for 90-120 minutes in the dark. Compounds were dissolved in DMSO to prepare a 10 mM stock solution. The intensity of the fluorescence was captured and digitally transferred to an interfaced PC. The peak increase in fluorescence over baseline (relative fluorescence units) was calculated and expressed as the percentage of the maximal 2-APB (2-aminoethoxyldiphenyl borate) response (in the absence of compound).

human TRPV3 receptors, sequence (Q8NET8 whole entry): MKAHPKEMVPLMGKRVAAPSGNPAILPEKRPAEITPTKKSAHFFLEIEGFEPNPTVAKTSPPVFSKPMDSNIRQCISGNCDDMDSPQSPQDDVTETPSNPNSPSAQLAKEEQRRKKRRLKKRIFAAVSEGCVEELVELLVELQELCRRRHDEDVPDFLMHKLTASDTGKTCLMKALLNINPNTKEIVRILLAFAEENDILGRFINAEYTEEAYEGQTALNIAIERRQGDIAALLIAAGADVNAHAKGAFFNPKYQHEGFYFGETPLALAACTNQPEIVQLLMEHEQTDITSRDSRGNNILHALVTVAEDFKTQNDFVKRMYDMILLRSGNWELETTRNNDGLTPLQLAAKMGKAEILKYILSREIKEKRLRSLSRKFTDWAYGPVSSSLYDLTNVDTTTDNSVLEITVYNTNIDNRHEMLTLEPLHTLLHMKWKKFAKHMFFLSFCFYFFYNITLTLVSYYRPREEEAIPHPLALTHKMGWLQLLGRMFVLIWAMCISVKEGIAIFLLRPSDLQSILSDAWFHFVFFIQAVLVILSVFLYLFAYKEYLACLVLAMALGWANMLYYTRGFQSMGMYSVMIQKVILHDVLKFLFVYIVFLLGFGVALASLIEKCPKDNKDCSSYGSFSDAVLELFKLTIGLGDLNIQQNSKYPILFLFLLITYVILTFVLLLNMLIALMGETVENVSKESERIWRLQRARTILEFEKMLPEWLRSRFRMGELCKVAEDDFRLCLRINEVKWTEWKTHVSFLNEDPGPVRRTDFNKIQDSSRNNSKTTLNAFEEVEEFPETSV

SMILES	IC50 [nM]
CC(C)[C@H](CO)NCc1cccc(N2CCCC2)n1 [Example 10, (2R)-3-methyl-2-({[6-(pyrrolidin-1-yl)pyridin-2-yl]methyl}amino)butan-1-ol]	3790
CC(C)[C@H](CO)NCc1nc(C2CC3CCC2C3)ccc1F (stereo partly drawn) [Example 199, (2R)-2-({[6-(bicyclo[2.2.1]hept-2-yl)-3-fluoropyridin-2-yl]methyl}amino)-3-methylbutan-1-ol]	1590
CC(C)[C@H](CO)NCc1nccc(-c2ccc(F)cc2)n1 [Example 32, (2R)-2-({[4-(4-fluorophenyl)pyrimidin-2-yl]methyl}amino)-3-methylbutan-1-ol]	12000
OC1(CNCc2ccnc(-c3ccc(C(F)(F)F)cc3)n2)CCCC1 [Example 177, 1-{[({2-[4-(trifluoromethyl)phenyl]pyrimidin-4-yl}methyl)amino]methyl}cyclopentanol]	> 20000
CC(C)[C@@H](CO)NCc1nc(-c2ccc(C(F)(F)F)nc2)ccc1F [Example 35, (2S)-2-({[5-fluoro-6′-(trifluoromethyl)-2,3′-bipyridin-6-yl]methyl}amino)-3-methylbutan-1-ol]	> 20000
CC[C@H](CO)NCc1ccnc(-c2ccc(S(=O)(=O)C(F)(F)F)cc2)n1 [Example 209, (2R)-2-{[(2-{4-[(trifluoromethyl)sulfonyl]phenyl}pyrimidin-4-yl)methyl]amino}butan-1-ol]	1470
CCN(CC)C(=O)c1cccc(-c2ccc(F)c(CN[C@@H](CO)C(C)C)n2)c1 [Example 41, N,N-diethyl-3-[5-fluoro-6-({[(2R)-1-hydroxy-3-methylbutan-2-yl]amino}methyl)pyridin-2-yl]benzamide]	2970
CC(C)(O)[C@H](CO)NCc1ccnc(-c2ccc(S(=O)(=O)C(F)(F)F)cc2)n1 [Example 211, (2S)-3-methyl-2-{[(2-{4-[(trifluoromethyl)sulfonyl]phenyl}pyrimidin-4-yl)methyl]amino}butane-1,3-diol]	> 20000
CC(C)[C@@H](CO)NCc1cccc(-c2ccc(C(F)(F)F)cc2)n1 [Example 3, (2S)-3-methyl-2-[({6-[4-(trifluoromethyl)phenyl]pyridin-2-yl}methyl)amino]butan-1-ol]	9380
O[C@H]1CCCC[C@@H]1CNCc1ccnc(-c2ccc(C(F)(F)F)cc2)n1 [Example 165, (1S,2R)-2-{[({2-[4-(trifluoromethyl)phenyl]pyrimidin-4-yl}methyl)amino]methyl}cyclohexanol]	> 20000
CC(C)[C@H](CO)NCc1nc(-c2cnn(CC3OCCO3)c2)ccc1F [Example 250, (2R)-2-[({6-[1-(1,3-dioxolan-2-ylmethyl)-1H-pyrazol-4-yl]-3-fluoropyridin-2-yl}methyl)amino]-3-methylbutan-1-ol]	> 20000
CC(C)[C@H](CO)NCc1cccc(-c2ccc(C(F)(F)F)nc2)n1 [Example 69, (2R)-3-methyl-2-({[6′-(trifluoromethyl)-2,3′-bipyridin-6-yl]methyl}amino)butan-1-ol]	3720
CC(C)[C@H](CO)NCc1nc(-c2cnc(OCC(F)(F)F)nc2)ccc1F [Example 114, (2R)-2-[({3-fluoro-6-[2-(2,2,2-trifluoroethoxy)pyrimidin-5-yl]pyridin-2-yl}methyl)amino]-3-methylbutan-1-ol]	2330
C[C@H](O)[C@H](CO)NCc1ccnc(-c2ccc(C(F)(F)F)cc2)n1 [Example 149, (2S,3S)-2-[({2-[4-(trifluoromethyl)phenyl]pyrimidin-4-yl}methyl)amino]butane-1,3-diol]	> 20000
CC(C)[C@H](CO)NCc1nc(-c2ccnn2C)ccc1F [Example 252, (2R)-2-({[3-fluoro-6-(1-methyl-1H-pyrazol-5-yl)pyridin-2-yl]methyl}amino)-3-methylbutan-1-ol]	> 20000
OC[C@H]1[C@H]2CC[C@H](C2)[C@H]1NCc1ccnc(-c2ccc(C(F)(F)F)cc2)n1 [Example 170, {(1S,2S,3R,4R)-3-[({2-[4-(trifluoromethyl)phenyl]pyrimidin-4-yl}methyl)amino]bicyclo[2.2.1]hept-2-yl]methanol]	6160
OC1(CNCc2ccnc(-c3ccc(C(F)(F)F)cc3)n2)CCCCC1 [Example 178, 1-{[({2-[4-(trifluoromethyl)phenyl]pyrimidin-4-yl}methyl)amino]methyl}cyclohexanol]	> 20000
CC(C)[C@H](CO)NCc1nc(C2CCCOC2)ccc1F (stereo partly drawn) [Example 218, (2R)-2-({[3-fluoro-6-(tetrahydro-2H-pyran-3-yl)pyridin-2-yl]methyl}amino)-3-methylbutan-1-ol]	> 20000
C[C@@H](O)[C@H](NCc1nc(-c2ccc(C(F)(F)F)nc2)ccc1F)C(=O)Nc1ccc2ccccc2c1 [Example 130, N^2-{[5-fluoro-6′-(trifluoromethyl)-2,3′-bipyridin-6-yl]methyl}-N-naphthalen-2-yl-L-threoninamide]	2550
CC[C@H](CO)NCc1nc(-c2ccc(C(F)(F)F)nc2)ccc1F [Example 78, (2R)-2-({[5-fluoro-6′-(trifluoromethyl)-2,3′-bipyridin-6-yl]methyl}amino)butan-1-ol]	10200
CC(C)[C@H](CO)NCc1nc(-c2cc(Cl)cc(Cl)c2)ccc1F [Example 21, (2R)-2-({[6-(3,5-dichlorophenyl)-3-fluoropyridin-2-yl]methyl}amino)-3-methylbutan-1-ol]	3300
OC[C@H](NCc1ccnc(-c2ccc(C(F)(F)F)cc2)n1)C1CC1 [Example 145, (2R)-2-cyclopropyl-2-[({2-[4-(trifluoromethyl)phenyl]pyrimidin-4-yl}methyl)amino]ethanol]	3050
CC(C)[C@H](CO)NCc1cc(C(F)(F)F)cc(-c2ccc(C(F)(F)F)nc2)n1 [Example 118, (2R)-2-({[4,6′-bis(trifluoromethyl)-2,3′-bipyridin-6-yl]methyl}amino)-3-methylbutan-1-ol]	> 20000

These reach a lower IC50. Values come first.

IC50 [nM]	SMILES
960	CC(C)[C@H](CO)NCc1nc(N2CCC(F)(F)CC2)ccc1F [Example 92, (2R)-2-({[6-(4,4-difluoropiperidin-1-yl)-3-fluoropyridin-2-yl]methyl}amino)-3-methylbutan-1-ol]
830	CC(C)[C@H](CO)NCc1nc(-c2cccc(N3CCOCC3)c2)ccc1F [Example 44, (2R)-2-[({3-fluoro-6-[3-(morpholin-4-yl)phenyl]pyridin-2-yl}methyl)amino]-3-methylbutan-1-ol]
580	OCC1(NCc2cccc(-c3ccc(C(F)(F)F)cc3C(F)(F)F)n2)CCCC1 [Example 271, {1-[({6-[2,4-bis(trifluoromethyl)phenyl]pyridin-2-yl}methyl)amino]cyclopentyl}methano 1]
460	CC(C)[C@H](CO)NCc1nc(-c2cccc(N(C)C)c2)ccc1F [Example 43, (2R)-2-[({6-[3-(dimethylamino)phenyl]-3-fluoropyridin-2-yl}methyl)amino]-3-methylbutan-1-ol]
440	CC(C)[C@H](CO)NCc1cccc(-c2ccc(F)c(C#N)c2)n1 [Example 269, 2-fluoro-5-[6-({[(2R)-1-hydroxy-3-methylbutan-2-yl]amino}methyl)pyridin-2-yl]benzonitrile]
420	CC(C)[C@H](CO)NCc1nc(N2CCC(C(F)(F)F)C2)ccc1F (stereo partly drawn) [Example 67, (2R)-2-[({3-fluoro-6-[3-(trifluoromethyl)pyrrolidin-1-yl]pyridin-2-yl}methyl)amino]-3-methylbutan-1-ol]
350	CC(C)[C@H](CO)NCc1nc(N2CCc3c(cccc3C(F)(F)F)C2)ccc1F [Example 102, (2R)-2-[({3-fluoro-6-[5-(trifluoromethyl)-3,4-dihydroisoquinolin-2(1H)-yl]-pyridin-2-yl}methyl)amino]-3-methylbutan-1-ol]
340	CC(C)[C@H](CO)NCc1nc([C@H]2CC[C@@H](C(F)(F)F)CC2)ccc1F [Example 257, (2R)-2-[({3-fluoro-6-[cis-4-(trifluoromethyl)cyclohexyl]pyridin-2-yl}methyl)amino]-3-methylbutan-1-ol]
330	CC(C)[C@H](CO)NCc1nc(N2Cc3ccc(C(F)(F)F)cc3C2)ccc1F [Example 96, (2R)-2-[({3-fluoro-6-[5-(trifluoromethyl)-1,3-dihydro-2H-isoindol-2-yl]pyridin-2-yl}methyl)amino]-3-methylbutan-1-ol]
320	CC(C)[C@H](CO)NCc1nc(N2CCc3ccc(F)cc3C2)ccc1F [Example 98, (2R)-2-({[3-fluoro-6-(7-fluoro-3,4-dihydroisoquinolin-2(1H)-yl)pyridin-2-yl]methyl}amino)-3-methylbutan-1-ol]
270	CC(C)[C@H](CO)NCc1nc(N2Cc3ccc(F)cc3C2)ccc1F [Example 93, (2R)-2-({[3-fluoro-6-(5-fluoro-1,3-dihydro-2H-isoindol-2-yl)pyridin-2-yl]methyl}amino)-3-methylbutan-1-ol]
180	CC(C)[C@H](CO)NCc1nc(N2CCc3ccccc3C2)ccc1F [Example 70, (2R)-2-({[6-(3,4-dihydroisoquinolin-2(1H)-yl)-3-fluoropyridin-2-yl]methyl}amino)-3-methylbutan-1-ol]
160	CC(C)[C@H](CO)NCc1nc(-c2cc(F)c(F)cc2F)ccc1F [Example 246, (2R)-2-({[3-fluoro-6-(2,4,5-trifluorophenyl)pyridin-2-yl]methyl}amino)-3-methylbutan-1-ol]
130	CC(C)[C@H](CO)NCc1nc(C#Cc2ccccc2)ccc1F [Example 289, (2R)-2-({[3-fluoro-6-(phenylethynyl)pyridin-2-yl]methyl}amino)-3-methylbutan-1-ol]
